Results reported in US11993801B2, “Base-modified nucleotides as substrates for TdT-based enzymatic nucleic acid synthesis” (Illumina Singapore Pte. Ltd., priority 2020, dated 2024).

Experiments:
TdT [1] = biological target: T1, TdT (Bos taurus, UniProt P06526); experiment: TdT incorporation assay (extension of 21-nt oligonucleotide, denaturing TBE-Urea gel); type: biochemical; details: for yield of 22-nt oligo (+1 product) / yield of 23-nt oligo (+2 product) / yield of 24-nt oligo (+3 product): 40 μM nucleotide
T1 construct: purchased New England Biolab (Ipswich, MA)
T1 sequence (P06526 whole entry): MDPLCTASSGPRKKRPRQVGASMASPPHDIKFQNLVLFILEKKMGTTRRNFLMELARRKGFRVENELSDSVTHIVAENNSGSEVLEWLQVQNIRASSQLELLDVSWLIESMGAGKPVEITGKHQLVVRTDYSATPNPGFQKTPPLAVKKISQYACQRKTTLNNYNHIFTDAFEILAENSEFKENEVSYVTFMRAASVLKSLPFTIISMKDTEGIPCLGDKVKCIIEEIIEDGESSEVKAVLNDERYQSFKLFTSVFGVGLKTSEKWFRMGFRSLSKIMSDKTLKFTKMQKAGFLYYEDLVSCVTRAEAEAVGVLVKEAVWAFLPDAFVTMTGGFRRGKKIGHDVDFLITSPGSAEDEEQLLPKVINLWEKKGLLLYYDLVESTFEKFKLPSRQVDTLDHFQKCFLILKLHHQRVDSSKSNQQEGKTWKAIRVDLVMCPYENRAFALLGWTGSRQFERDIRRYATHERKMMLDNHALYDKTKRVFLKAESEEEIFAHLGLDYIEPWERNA
Protocol: DNA oligonucleotide sequence used for primer extension assays is: ATTCAGGACGAGCCTCAGACC (SEQ ID NO: 1)
[…] The solution was then heated at 95° C. for 5 minutes to inactivate TdT. UV cleavage of the photolabile group was done using an 8 W UV lamp at 365 nm for 10 minutes.
(§1) Initrogen (Carlsbad, California) Novex™ TBE-Urea gel (15%) was pre-washed with 1×TBE running buffer to remove excess urea. Oligonucleotide samples (5 μL) were mixed with Novex™ TBE-Urea Sample Buffer (2×, 5 μL). The mixture was then heated at 95° C. for 5 minutes and loaded to the gel. Gels were run in a 1×TBE running buffer at up to 240 V until the bromophenol blue reached the bottom of the gel. The gel was then visualized using Gel Doc XR+ and analyzed using the gel analysis tool in the Bio-Rad (Hercules, California) Image Lab software.

TdT [2] = details: cited from earlier work
TdT [3] = biological target: T1, TdT; experiment: 2 cycle incorporation and deprotection; type: biochemical; details: nucleotide 20 μM, 7 minutes at 37° C., 8 W UV lamp at 365 nm for 10 minutes per cycle (FIG. 5)
Protocol: A 6-fluorescein-tagged 21-nt oligonucleotide (200 nM), 1× TdT buffer (NEB), TdT (2 U μL^−1) CoCl2 (NEB, 0.25 mM) and nucleotide (20 μM) in 500 μL solution was incubated at 37° C. for 7 minutes and quenched with EDTA (50 μL, 500 mM). The solution was concentrated using MilliporeSigma (Burlington, Massachusetts) Amicon Ultra-0.5 mL Centrifugal Filters (3 kDa) to a final volume of 30 μL. Sodium Acetate solution (10 μL, 3M, pH 5.0) was added to the concentrated solution and further purified using Zymo (Irvine, California) DNA Clean & Concentrator. UV cleavage of the photolabile group was done using an 8 W UV lamp at 365 nm for 10 minutes. The steps were then repeated to give the second incorporation.
as §1

[4] = 200 nM 21-nt oligonucleotide, 1 U μL^−1 TdT, 15 minutes

Cc1cn([C@H]2C[C@H](OCN=[N+]=[N-])[C@@H](COP(=O)(O)OP(=O)(O)OP(=O)(O)O)O2)c(=O)[nH]c1=O [3′-O-azidomethyl-dTTP, reference compound]
incorporation by TdT (TdT [1]; nucleotide 1 μM to 32 μM, 10 minutes of incubation at 37° C. (FIG. 4)): unable to incorporate

CCCCSCCc1cn([C@H]2C[C@H](O)[C@@H](COP(=O)(O)OP(=O)(O)OP(=O)(O)O)O2)c2ncnc(N)c12 [7-[2-(butylsulfanyl)ethyl]-2′-deoxy-7-deazaadenosine 5′-O-triphosphate]
number of incorporation events by TdT (TdT [2]): only a single incorporation event

Nc1ncnc2c1c(CCSc1ccccc1)cn2[C@H]1C[C@H](O)[C@@H](COP(=O)(O)OP(=O)(O)OP(=O)(O)O)O1 [7-[2-(phenylsulfanyl)ethyl]-2′-deoxy-7-deazaadenosine 5′-O-triphosphate]
number of incorporation events by TdT (TdT [2]): only a single incorporation event

NCC#Cc1cn([C@H]2C[C@H](O)[C@@H](COP(=O)(O)OP(=O)(O)OP(=O)(O)O)O2)c(=O)[nH]c1=O [propargylamino-dUTP, reference compound]
incorporation by TdT compared to that of dTTP (TdT [1]; Lanes 6-7, FIG. 2A): significantly slower

N3-PEG4-dUTP [Compound 1]
yield of 22-nt oligo (+1 product) (TdT [1]; [4]): 55%
yield of 23-nt oligo (+2 product) (TdT [1]; [4]): 41%
yield of 24-nt oligo (+3 product) (TdT [1]; [4]): 4%
yield of 22-nt oligo (+1 product) (TdT [1]; 30 minutes of incubation): 35%
yield of 23-nt oligo (+2 product) (TdT [1]; 30 minutes of incubation): 56%
yield of 24-nt oligo (+3 product) (TdT [1]; 30 minutes of incubation): 9%

N3-PEG8-dUTP [Compound 2]
yield of 22-nt oligo (+1 product) (TdT [1]; [4]): 88%
yield of 23-nt oligo (+2 product) (TdT [1]; [4]): 12%
yield of 24-nt oligo (+3 product) (TdT [1]; [4]): not observed
yield of 23-nt oligo (+2 product) (TdT [1]; 30 minutes of incubation): 22%
yield of 24-nt oligo (+3 product) (TdT [1]; 30 minutes of incubation): not observed

N3-PEG12-dUTP [Compound 3]
yield of 22-nt oligo (+1 product) (TdT [1]; [4]): 94%
yield of 23-nt oligo (+2 product) (TdT [1]; 30 minutes of incubation): 13%
yield of 24-nt oligo (+3 product) (TdT [1]; 30 minutes of incubation): not observed

N3-PEG23-nitrobenzyl-dUTP [Compound 5]
incorporation by TdT (TdT [1]; nucleotide 20 μM (Lane 10, FIG. 4)): could be incorporated
reaction time in which quantitative incorporation was achieved (TdT [1]; optimized conditions, incorporation time varied from 5 to 9 minutes (FIG. 3)): ≤ 7 min
product after 2 cycles of incorporation and photocleavage of PEG moiety (TdT [3]): the desired 23-nt oligo

N3-PEG24-dUTP [Compound 4]
yield of 22-nt oligo (+1 product) (TdT [1]; [4]): quantitative
yield of 22-nt oligo (+1 product) (TdT [1]; 30 minutes of incubation): 98%
yield of 23-nt oligo (+2 product) (TdT [1]; 30 minutes of incubation): 2%
yield of 24-nt oligo (+3 product) (TdT [1]; 30 minutes of incubation): not observed
